The values below come from patent US6083986A, “Potassium channel inhibitors” (ICAgen, Inc., priority 1997, dated 2000).

pIC50: −log10 of the molar value.

The target in data set [1] is T1, human Kv1.3 potassium channel (Homo sapiens, UniProt P22001). Nature of the data set: 86Rubidium efflux from CHO cell monolayers expressing Kv1.3. It counts as cell-based. The following applies: for inhibition of 60 mM KCl evoked increase in 86Rb efflux rate (Kv1.3): preexposure to 5 nM margatoxin or 10 μM compound 4, 15 minute period, n=4.
Protocol: Stable clones were tested for voltage-gated potassium channel expression using a ^86 rubidium (^86 Rb) ion flux assay (see below for methodology).
(§4) 2. ^86 Rubidium Efflux From Cell Monolayers
CHO cells stably transfected with either human Kv1.5 or Kv1.3 as well as nontransfected cells were grown to approximately 90% confluence in 24 well tissue culture plates. Tissue culture growth medium was then removed and replaced with 1 ml of Iscoves modified DMEM containing ^86 Rb at a concentration of 1 μCi/ml and incubated for three hours at 37° C. to permit intracellular uptake of the isotope. At the end of the incubation period, the ^86 Rb solution was aspirated and the cells washed three times with Earls Balanced Salt Solution (EBSS). The cells were then incubated for 15 minutes at room temperature in 0.6 ml/well of EBSS or EBSS containing the compounds to be tested. At the end of this period, a 0.3 ml sample was taken for analysis to determine basal efflux of ^86 Rb. To each well was then added 0.3 ml of a modified high KCl EBSS, containing 125 mM KCl (NaCl replaced by KCl; final KCl concentration in each well was 65 nM) and the compounds to be tested. The high KCl concentration was utilized to depolarize the cells to membrane potentials that would activate Kv1.3 and Kv1.5 channels. After a 15 minute incubation, another 0.3 ml sample was taken for analysis. Finally 0.3 ml of 0.2% sodium dodecyl sulfate in EBSS was added to each well to lyse the cells. Of this lysate 0.3 ml was taken for analysis to determine final cell content of ^86 Rb. Samples were counted in a Wallac Microbeta Liquid Scintillation counter by Cerenkov emission. Efflux was expressed as a percentage of the initial cell content of ^86 Rb.
(§5) Values are means ±s.e. (n=4) of the amount of ^86 Rb released in a 15 minute period and are expressed as a percentage of the initial cell content.
Data set [2] concerns the target T2, human Kv1.5 potassium channel (Homo sapiens, UniProt P22460).
T2 construct: Error-free parts of these clones were then ligated together to form a complete cDNA construct; expressed in transfected cells
Kind of data set: 86Rubidium efflux from CHO cell monolayers expressing Kv1.5. It counts as cell-based. The following applies: 10 μM compound 4; 15 minute period; n=4.
Protocol: as §4
CHO cells stably transfected with either human Kv1.5 or Kv1.3 as well as nontransfected cells were grown to approximately 90% confluence in 24 well tissue culture plates. Tissue culture growth medium was then removed and replaced with 1 ml of Iscoves modified DMEM containing ^86 Rb at a concentration of 1 μCi/ml and incubated for three hours at 37° C. to permit intracellular uptake of the isotope. At the end of the incubation period, the ^86 Rb solution was aspirated and the cells washed three times with Earls Balanced Salt Solution (EBSS). The cells were then incubated for 15 minutes at room temperature in 0.6 ml/well of EBSS or EBSS containing the compounds to be tested. At the end of this period, a 0.3 ml sample was taken for analysis to determine basal efflux of ^86 Rb. To each well was then added 0.3 ml of a modified high KCl EBSS, containing 125 mM KCl (NaCl replaced by KCl; final KCl concentration in each well was 65 nM) and the compounds to be tested. […] Samples were counted in a Wallac Microbeta Liquid Scintillation counter by Cerenkov emission. Efflux was expressed as a percentage of the initial cell content of ^86 Rb.
as §5

Data set [3] addresses T1, human Kv1.3 potassium channel. Kind of data set: Fluorescence measurement of cell membrane potential (DiBac4(3)) in CHO cells expressing Kv1.3. It counts as cell-based. To be noted: 10 μM; compared with margatoxin; CHO cells expressing human Kv1.3.
Protocol: Fluorescence Measurement of Cell Membrane Potential
CHO cells stably transfected with genes encoding human voltage gated potassium channels were grown to 80-90% confluency in 96 well tissue culture plates. On the experimental day, they were repeatedly contacted with a modified EBSS (116 mM NaCl, 5.4 mM KCl, 1.8 mM CaCl2, 0.8 mM MgCl2, 20 mM HEPES, 5 nM glucose; pH 7.4, 300 mOsm) plus 5 μM of the voltage-sensitive oxonol dye, bis-(1,3-dibutylbarbituric acid)trimethine oxonol (DiBac4 (3)). Dibac4 (3) binds to intracellular proteins in a membrane potential-dependent process, changing the effective concentration of fluorescing molecules. […] The cells in each well were then incubated in EBSS+5 μM DiBac4 (3) at 37° C. for 30 minutes. The 96 well plate was then placed in a 35° C. temperature controlled chamber within a laser based fluorescence imaging plate reader (NovelTech Inc.). Data were collected every 60 seconds for periods ranging from 20 to 40 min. To permit comparative quantification of the magnitude of drug induced changes in the fluorescence signal, changes were compared to the addition of EBSS+5 μM DiBac4 (3) without drug and EBSS+5 μM DiBac4 (3)+30 mM KCl without drug, and expressed as a percentage of the increase in fluorescence induced by exposure of the cells to 30 mM KCl. […]
In a further data set the test system is nontransfected CHO cells. Kind of data set: Fluorescence measurement of cell membrane potential (DiBac4(3)) in non-transfected CHO cells. The following applies: 10 μM; CHO-WT. It counts as cell-based, Chinese hamster.
For data set [4], the target named is T2, human Kv1.5 potassium channel. Kind of data set: Whole cell patch clamp, inhibition of Kv1.5 current in CHO cells. It counts as cell-based. The following applies: for pIC50: Kv1.5, whole cell patch clamp, approx. values, read-out: 50% Channel Inhibition (IC50). How it is done: (§1) 4. Electrophysiological Studies
(§2) Electrophysiological recordings of native channels in cells and cell lines, cloned and expressed channels in cells (e.g., CHO cells) as well as isolated cardiac myocytes were performed using the whole cell configuration of the patch clamp technique (Hamill et al., Pflugers Archiv 391:85, 1981). Cell lines were prepared as described above (cloning, etc.). Rat and human cardiac myocytes were isolated using the methods described in Castle and Slawsky, J. Pharmacol. Exp. Ther. 264:1450, 1993 and Wang et al., Circ. Res., 73:1061, 1993, respectively. Cells were plated on glass coverslips at a density of 2×10^4 cells/coverslip and used within 24-48 hours for cultured cell lines and within 6 hours for isolated cardiac myocytes. The coverslips were placed in a small chamber (volume ~200 μl) on the mechanical stage of an inverted microscope and perfused (2 ml/min) with extracellular recording solution. Drug application was achieved via a series of narrow-bore glass capillary tubes (inner diameter ~100 μm) positioned approximately 200 μm from the cell. Application of voltage-clamp pulses, data acquisition and the analysis were controlled by a 75 MHz Pentium computer using pCLAMP 6.0 software (Axon Instruments Inc. Foster City, Calif.).
500 ms voltage clamp steps from -80 mV to +60 mV were applied to individual cells every 20 seconds for Kv1.5 and every 60 seconds for Kv1.3.
For orientation: The patch-clamp technique gives a direct electrical read-out from membranes.

The target in data set [5] is T1, human Kv1.3 potassium channel. Nature of the data set: Whole cell patch clamp, inhibition of Kv1.3 current in CHO cells. It counts as cell-based. To be noted: 10 μM, 5 min preincubation; steps -80 mV to +60 mV every 60 seconds. The method, then:
as §1
as §2, with “Calif.). […]” for “Calif.).”

The test system of data set [6] is IKur in human atrial myocytes. Nature of the data set: Inhibition of IKur currents in isolated human atrial myocytes. It counts as cell-based. The method, then:
as §1, §2

In another data set the test system is human atrial myocytes. Nature of the data set: Action potential prolongation in isolated human atrial myocytes. It counts as cell-based. The method, then: as §1, §2
(§3) A functional consequence of potassium channel inhibition in the heart is a prolongation of the action potential duration. […]

Another data set concerns rat cardiac myocytes. Kind of data set: Action potential prolongation in rat cardiac myocytes. It counts as cell-based. The following applies: 1 μM, 2 min application. How it is done: as §1, §2, §3
Another data set relates to human T lymphocytes. Nature of the data set: T-lymphocyte proliferation assay (PHA-stimulated 3H-thymidine incorporation). It counts as cell-based. To be noted: compared to PHA-only controls; 10 μM compound 4, 1 nM margatoxin, 50 nM charybdotoxin; PHA 1.25 or 2.5 μg/ml.
A further data set concerns human T-lymphocytes. Nature of the data set: Toxicity to human T-lymphocytes (cell viability). To be noted: 10 μM, 90 hours of exposure. It counts as cell-based.

T1 sequence (P22001 whole entry): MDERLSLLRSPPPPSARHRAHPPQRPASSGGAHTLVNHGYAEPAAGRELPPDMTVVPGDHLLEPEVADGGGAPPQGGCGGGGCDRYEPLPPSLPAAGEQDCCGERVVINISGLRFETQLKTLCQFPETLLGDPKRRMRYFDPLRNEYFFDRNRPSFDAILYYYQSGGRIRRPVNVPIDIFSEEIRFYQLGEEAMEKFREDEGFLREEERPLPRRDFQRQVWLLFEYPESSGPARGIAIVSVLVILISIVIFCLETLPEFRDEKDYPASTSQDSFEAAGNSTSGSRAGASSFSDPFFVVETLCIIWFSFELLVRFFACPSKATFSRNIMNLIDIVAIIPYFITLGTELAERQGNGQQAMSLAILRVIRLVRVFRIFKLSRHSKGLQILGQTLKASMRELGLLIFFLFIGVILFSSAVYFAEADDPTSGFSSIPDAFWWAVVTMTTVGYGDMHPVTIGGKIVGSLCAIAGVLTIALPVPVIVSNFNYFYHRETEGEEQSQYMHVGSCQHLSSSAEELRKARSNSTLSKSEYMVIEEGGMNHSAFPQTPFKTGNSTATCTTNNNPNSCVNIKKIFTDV
T2 sequence (P22460 whole entry): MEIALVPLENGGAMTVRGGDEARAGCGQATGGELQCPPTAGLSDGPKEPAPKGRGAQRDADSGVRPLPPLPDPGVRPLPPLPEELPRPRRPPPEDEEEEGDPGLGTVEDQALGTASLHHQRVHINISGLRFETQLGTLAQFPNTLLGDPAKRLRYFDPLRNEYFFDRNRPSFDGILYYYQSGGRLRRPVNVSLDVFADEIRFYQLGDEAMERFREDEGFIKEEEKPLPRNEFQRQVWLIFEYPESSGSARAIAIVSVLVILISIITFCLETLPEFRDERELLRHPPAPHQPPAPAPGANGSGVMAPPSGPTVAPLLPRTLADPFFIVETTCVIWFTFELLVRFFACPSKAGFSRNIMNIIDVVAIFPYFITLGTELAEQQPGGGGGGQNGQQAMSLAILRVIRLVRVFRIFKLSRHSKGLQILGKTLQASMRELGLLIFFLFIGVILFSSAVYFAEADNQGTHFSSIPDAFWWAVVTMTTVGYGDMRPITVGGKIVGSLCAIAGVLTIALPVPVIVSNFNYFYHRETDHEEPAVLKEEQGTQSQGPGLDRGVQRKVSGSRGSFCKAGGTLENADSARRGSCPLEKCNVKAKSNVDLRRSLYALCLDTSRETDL
Protocol for human T lymphocytes: Lymphocyte Proliferation Studies
(§6) A T-lymphocyte proliferation assay was performed using human peripheral T-lymphocytes isolated by centrifugation on lymphocyte separation medium (Organon Teknika) followed by adherence of non-T cells on nylon wool. […] 100 μl of cells/well was dispensed into a 96-well plate. Cells were stimulated with phytohemoagglutinin (1.25 or 2.5 μg/ml final concentration) in the presence or absence of various antagonists for 3 days. On the fourth day, cells were pulsed with [^3 ]thymidine for an additional 18 hours and harvested on glass fiber filtermats with extensive washing. Mats were counted in a Wallac Microbeta liquid scintillation counter using melt-on scintillant. Additional wells were counted at the end of the 18 hour period to determine if the drug treatments caused cellular toxicity.
Protocol for human T-lymphocytes: as §6

By pIC50 is commonly meant the negative decadic logarithm of the IC50, by convention in mol/L. As usually defined, the inhibition is the change of the read-out against control, counted positive when it falls. Read a high inhibition as strong suppression. Turning to `CCc1ccc(S(=O)(=O)N[C@H]2c3cc(NC(=O)c4cccc(OC)c4)ccc3C[C@@H]2O)cc1` (relative stereo) [Compound 4, 1-(p-ethylphenyl)sulfimide-2-hydroxy-6-(m-methoxy)benzamido-indane], in data set [1], the “inhibition of 60 mM KCl evoked increase in 86Rb efflux rate (Kv1.3)” value is reported as “completely abolished”. Also, the “inhibition of KCl evoked increase in 86Rb efflux rate (Kv1.5)” value in data set [2] was “completely inhibited”. In data set [3], the “cell membrane depolarization (Kv1.3)” value is reported as “produced a depolarization similar in magnitude to that induced by the Kv1.3-specific blocking toxin margatoxin”. Besides, the “compound-induced depolarization (nontransfected cells)” value with nontransfected CHO cells was “absent”. The “inhibition of potassium currents (Kv1.5)” value in data set [4] (10 μM, 5 min preincubation, steps -80 mV to +60 mV every 20 seconds) is “inhibition of potassium currents”. Besides, the pIC50 in data set [4] was roughly 7.00. In addition, in data set [5], the “inhibition of potassium currents (Kv1.3)” value is given as “inhibition of potassium currents”. Moreover, the inhibition at 1 µM in [6] is greater than 50%. The activation at 1 µM with human atrial myocytes is greater than 50%. In the data set on rat cardiac myocytes, the “prolongation of the action potential (rat)” value is “prolongs the action potential”. Further, in the data set with human T lymphocytes, the “inhibition of lymphocyte proliferation” value was “inhibited lymphocyte proliferation to a similar extent”. For the same compound, the “cell viability / toxicity to human T-lymphocytes” value in the data set with human T-lymphocytes is “no decrease in cell viability”.

Turning to `CCc1ccc(S(=O)(=O)NC2c3cc(NC(=O)c4cccc(C)c4)ccc3CC2O)cc1` (stereo not drawn) [Compound 2], the pIC50 in data set [4] was roughly 6.00.

For the compound `COc1ccc(S(=O)(=O)NC2c3cc(NC(=O)c4cccc(OC)c4)ccc3CC2O)cc1` (stereo not drawn) [Compound 10], in data set [4], the pIC50 is less than 6.00.

As for `CCc1ccc(S(=O)(=O)NC2c3cc(NC(=O)CCC4CCCC4)ccc3CC2O)cc1` (stereo not drawn) [Compound 11], the pIC50 in data set [4] was roughly 6.00.

Consider `COc1cccc(C(=O)Nc2ccc3c(c2)C(NS(=O)(=O)c2ccccc2)C(O)C3)c1` (stereo not drawn) [Compound 12], for which, in data set [4], the pIC50 was less than 6.00.

Turning to `CCc1ccc(S(=O)(=O)NC2c3cc(NC(=O)C4CC5CCC4CC5)ccc3CC2O)cc1` (stereo not drawn) [Compound 13], the pIC50 in data set [4] is roughly 6.00.

For the compound `CCCCCOc1ccc(C(=O)Nc2ccc3c(c2)C(NS(=O)(=O)c2ccc(CC)cc2)C(O)C3)cc1` (stereo not drawn) [Compound 15], the pIC50 in [4] is roughly 6.00.

Take `COc1cccc(C(=O)Nc2ccc3c(c2)C(NS(=O)(=O)c2ccc4ccccc4c2)C(O)C3)c1` (stereo not drawn) [Compound 16]: in data set [4], the pIC50 is roughly 6.00.

Turning to `CCc1ccc(S(=O)(=O)NC2c3cc(NC(=O)c4ccccc4F)ccc3CC2O)cc1` (stereo not drawn) [Compound 17], the pIC50 in [4] was less than 6.00.

charybdotoxin: in the data set with human T lymphocytes, the “inhibition of lymphocyte proliferation” value is “inhibited lymphocyte proliferation to a similar extent”.

Turning to “margatoxin (TIINVKCTSPKQCLPPCKAQFGQSAGAKCMNGKCKCYPH; UniProt P40755 1-39, looked up)”, the “inhibition of KCl-stimulated 86Rb efflux” value in data set [1] (margatoxin present, four positive Kv1.3 clones) is “approximately 95%”. In [1], the “inhibition of 60 mM KCl evoked increase in 86Rb efflux rate (Kv1.3)” value is reported as “completely abolished”. Besides, the “inhibition of lymphocyte proliferation” value with human T lymphocytes is recorded as “inhibited lymphocyte proliferation to a similar extent”.
